# Measurements reported in US20050208058A1, “Compositions and methods for modulating cell division” (priority 2003, published 2005).
# d = 2'-deoxy (DNA)
# Tests used:
# RPE cells [1] = test: Flow cytometry (FACS) of nocodazole-induced shift from G1 to G2/M peak after siRNA treatment; assay type: cell-based, human
# Method: For flow cytometry (i.e., fluorescence-activated cell sorter or FACS) experiments, siRNAs were delivered to cells as described above, and were incubated for 50-70 hours. To synchronize cells, nocodazole was added to the cells to a concentration of 5 μg/mL for 12 hours. Cells were stained with propidium iodide and analyzed by flow cytometry (FACSCAN; Becton Dickinson) using FLOJO® software (Tree Star, Inc., Ashland, Oreg.).
# In another approach to evaluating the effect requirement for centrosomal gene products, fluorescence assisted cell sorting (flow cytometry or FACS) analysis was performed as described in Gromley et al., J. Cell Biol., 161:535-545 (2003). Briefly, cells were treated with indicated siRNA for at least 50-70 hours, unless otherwise indicated. Cells were synchronized by adding nocodazole to 5 μg/mL for 12 hours prior to cell collection. Cells were collected, fixed in methanol, stained with propidium iodide, and analyzed by flow cytometry (FACSCAN®;Becton Dickinson) using FLOJO® software (Tree Star, Inc.).
# FIG. 3A is a graph showing the effects of depleting the indicated centrosomal gene products by siRNA treatment. The left side of the graph depicts the FACS results for treated cells before the addition of nocodazole (-noc). The major fluorescence peak in (-noc) cells is the G1 peak, (i.e., lower DNA fluorescence). The right side of the graph depicts the results for cells after nocodazole treatment (+noc). […] This may be due to inefficient silencing caused by the siRNAs used.
# The ability of a number of centrosomal genes to inhibit cell cycling of RPE1 cells was tested by treating cells with siRNAs and performing FACS analysis as described in Example 2.
# RPE cells [2] = test: BrDU staining of cells treated in tandem with two siRNAs (p53 dependence); assay type: cell-based, human; conditions: tandem treatment silaminin then indicated siRNA, vs silamin/silamin; FIG. 6B
# Method: To further study the effects of silencing centrosomal genes, the following cell cycle experiments were performed using RPE cells. In immunofluorescence experiments, cells were delivered by OLIGOFECTAMINE in a media solution containing between 1-100 nanomolar concentration of siRNAs. After 4 hours of incubation with lipofectamine, cells were washed, and cell cycle progression was assayed by (i) treating cells with 5-Bromo-2′-deoxyuridine (BrDU from Sigma, St Louis, Mo.) for 24 hours and staining for BrDU or (ii) staining cells with antibody to Ki-67 (BD Biosciences) according to manufacturer's instructions. BrDU treatment and staining were performed as follows: after 50-70 hours incubation with siRNA, BrDU was added to cells at a final concentration of 5 μg/ml. Cells were fixed in −20° C. methanol and then treated with 2N HCL at 22° C. for 30 minutes, incubated with 1:500 mouse anti-BrdU antibody (Becton Dickinson, Palo Alto, Calif.), and labeled with 1:1,000 goat FITC-mouse antibody (Molecular Probes, Inc.). Cells were also treated with 4′,6-diamidino-2-phenylindole (DAPI) (Molecular Probes) according to the manufacturer's instructions. Cells were prepared, imaged, and the resulting images were deconvolved as described in Example 1.
# A number of experiments were conducted to determine if p53 is required for the cell cycle arrest phenotype described herein. FACS analysis of tandem siRNA-treated cells was performed as described in Example 2. BrDU and DAPI imaging was performed as described in Example 2. Intracellular p53 was visualized using anti-p53 antibody that is specific for activated p53 (i.e., p53 phosphorylated at Serine 33) (“α-Pser33-p53” provided by Yoichi Taya and described in Kishis et al., J. Biol. Chem., 276:39115-3922, 2001)
sequence,measurement,setting,value
"UCUCGUACUCCAGAAGACU (siRNA; RNA, 3' dTdT, backbone not given here) [siGCP2, siRNA directed to GCP2]",block of nocodazole-induced shift to G2/M peak at 72 hours,"RPE cells [1]; 72 hours of siRNA treatment, FIG. 3B",effectively blocked the nocodazole-induced shift
same,inhibition of nocodazole-induced shift from G1 peak to G2/M peak,"RPE cells [1]; siRNA 50-70 hours, nocodazole 5 μg/mL 12 hours, FIG. 3A, FIG. 8",prevented nocodazole-induced shift
same,duration of block of nocodazole shift,"RPE cells [1]; time course, FIG. 3B",at least 244 hours
same,time of siRNA treatment before prevention of the nocodazole shift occurs,"RPE cells [1]; time course, FIG. 3B",> 48 h
same,cells incorporating BrDU,RPE cells [2],substantially fewer
